Values quoted from earlier work in patent publication US20080182823A1, “POLYMER-LINKED-BIOPHOSPHONATE INHALANT FORMULATIONS AND METHODS FOR USING THE SAME” (priority 2007, published 2008).

Tested on: antral mucosa
Settings: rat models; Lichtenberger et al., Dig. Dis. Sci. 45(9):1792-1801, 2000

Row | Structure (SMILES) | antral mucosal injury
1 | NCCCC(O)(P(=O)(O)O)P(=O)(O)O [alendronate, (4-amino-1-hydroxybutylidene)-bis-phosphonate] | cause antral mucosal injury
2 | O=P(O)(O)C(O)(Cc1cccnc1)P(=O)(O)O [risedronate, [1-Hydroxy-2-(3-pyridinyl)-ethylidine] bis-phosphonate] | cause antral mucosal injury
